19 molecules from patent publication US8198273B2, “Compounds and methods for kinase modulation, and indications therefor” (Plexxikon Inc., priority 2009, dated 2012) can be followed below.

The target in one data set is B-Raf V600E (Homo sapiens, UniProt P15056, V600E). The experiment in a line: B-Raf V600E biochemical kinase inhibition (AlphaScreen, biotin-MEK1 substrate). The settings on record: 100 μM ATP. As for the experimental part: Compounds to be tested are diluted in dimethyl sulfoxide to a concentration of 0.1 mM. These are serially diluted 15 μL into 30 μL of dimethyl sulfoxide seven times in 96 well plates for a total of 8 dilution points, and for each dilution point 1 μL is added to a well of an assay plate. […] The reaction is started with addition of 10 μL of 200 μM ATP (i.e. final 100 μM ATP). […] The plates are incubated for 3 hours at room temperature and read on Envision reader (Perkin Elmer). […] The signal vs. compound concentration is used to determine the IC50.

The target in the next data set is T1, CYP1A2 (Homo sapiens, UniProt P05177).
T1 sequence (P05177 1-516): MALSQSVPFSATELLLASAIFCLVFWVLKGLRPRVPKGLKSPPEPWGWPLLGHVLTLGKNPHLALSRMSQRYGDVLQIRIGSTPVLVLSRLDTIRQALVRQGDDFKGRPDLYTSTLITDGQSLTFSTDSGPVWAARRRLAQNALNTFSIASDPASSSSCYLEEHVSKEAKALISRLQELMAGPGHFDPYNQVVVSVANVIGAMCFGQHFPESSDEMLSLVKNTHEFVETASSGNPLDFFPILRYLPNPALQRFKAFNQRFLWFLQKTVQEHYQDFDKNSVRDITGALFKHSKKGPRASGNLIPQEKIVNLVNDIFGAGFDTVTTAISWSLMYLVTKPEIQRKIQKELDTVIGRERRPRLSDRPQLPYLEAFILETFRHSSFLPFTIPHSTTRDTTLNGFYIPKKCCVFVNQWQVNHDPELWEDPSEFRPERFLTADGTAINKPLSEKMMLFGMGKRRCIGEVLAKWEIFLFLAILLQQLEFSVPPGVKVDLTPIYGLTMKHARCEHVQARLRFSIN
The experiment in a line: CYP1A2 inhibition (fluorescent substrate). Particulars: CYP1A2, CEC substrate; read-out: Cyp IC50 1A2. The class given is in vitro ADME. As for the experimental part:
CYP (Cytochrome P450) enzymes are the major drug metabolizing enzymes present in the liver. The inhibition of CYP enzyme activity (IC50) for each of CYP1A2, CYP2C19, CYP2C9, CYP2D6, CYP3A4(BFC) and CYP3A4(BQ) is determined for compounds, where inhibition of metabolism of a known substrate leads to a decrease in the fluorescence of the metabolized product. The fluorescence of the product is monitored as a function of compound concentration.
Compounds are dissolved in dimethyl sulfoxide to a concentration of 100 mM. These are diluted 1 μL into 82 μL of acetonitrile. […] These are then serially diluted 1:1 (160 μL to 160 μL co-factor mix) for a total of 10 points. A 10 μL aliquot of this final mixture is dispensed into 384 well assay plates and incubated for 10 minutes at 37° C. […] Assay plates are incubated at 37° C. […] The signal versus compound concentration is used to determine the IC50. The enzymes and substrates for this assay are obtained from BD Biosciences.

Data set [1] has as its system A375 melanoma cells (B-Raf V600E). Nature of the data set: A375 cell growth inhibition (ATPlite). Format: cell-based. Particulars: Homo sapiens, A-375, 72 h; A375, 3 days incubation. The gist of the method:
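Cells plated overnight, then exposed 3 days at 37° C to 8-point 1:3 compound dilutions topping at 10 μM final. Viability read as ATPlite luminescence, proportional to cell number; IC50 from luminescence versus concentration.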

Chain of B-Raf V600E (P15056 whole entry V600E): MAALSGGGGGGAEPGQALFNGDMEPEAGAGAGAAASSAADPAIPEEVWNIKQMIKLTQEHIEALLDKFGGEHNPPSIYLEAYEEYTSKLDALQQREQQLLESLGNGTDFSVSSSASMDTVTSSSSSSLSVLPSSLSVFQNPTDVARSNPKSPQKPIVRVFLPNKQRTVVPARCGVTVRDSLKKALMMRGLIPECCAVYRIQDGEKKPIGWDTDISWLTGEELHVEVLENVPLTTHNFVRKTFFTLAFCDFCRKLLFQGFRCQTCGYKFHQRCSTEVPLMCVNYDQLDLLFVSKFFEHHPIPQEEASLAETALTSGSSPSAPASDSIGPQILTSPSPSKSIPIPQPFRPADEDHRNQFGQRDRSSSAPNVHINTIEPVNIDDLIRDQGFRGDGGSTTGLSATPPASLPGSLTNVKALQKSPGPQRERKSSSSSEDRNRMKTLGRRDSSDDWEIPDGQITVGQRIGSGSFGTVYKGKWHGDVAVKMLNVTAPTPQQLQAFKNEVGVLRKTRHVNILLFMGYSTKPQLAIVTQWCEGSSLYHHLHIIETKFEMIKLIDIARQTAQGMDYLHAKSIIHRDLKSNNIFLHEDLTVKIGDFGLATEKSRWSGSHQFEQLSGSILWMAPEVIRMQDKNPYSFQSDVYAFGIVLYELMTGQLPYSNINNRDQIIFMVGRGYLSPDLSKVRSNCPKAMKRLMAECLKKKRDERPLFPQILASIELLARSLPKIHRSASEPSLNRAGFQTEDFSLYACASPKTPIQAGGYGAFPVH

Consider `CCCS(=O)(=O)Nc1ccc(F)c(C(=O)c2c[nH]c3ncc(-c4ccc(S(=O)(=O)NC5CC5)cc4)cc23)c1F` [P-2168, N-Cyclopropyl-4-{3-[2,6-difluoro-3-(propane-1-sulfonylamino)-benzoyl]-1H-pyrrolo[2,3-b]pyridin-5-yl}-benzenesulfonamide], for which the IC50 at B-Raf V600E is under 10 nM; at CYP1A2 it was over 10 µM; in data set [1], under 1000 nM.
The corresponding values for `CCCS(=O)(=O)Nc1ccc(F)c(C(=O)c2c[nH]c3ncc(-c4cnc(N5CCOCC5)nc4)cc23)c1F` [P-2197, Propane-1-sulfonic acid {2,4-difluoro-3-[5-(2-morpholin-4-yl-pyrimidin-5-yl)-1H-pyrrolo[2,3-b]pyridine-3-carbonyl]-phenyl}-amide] are under 10 nM, over 10 µM and under 1000 nM.
The like results for `CCCS(=O)(=O)Nc1ccc(F)c(C(=O)c2c[nH]c3ncc(-c4ccc(NS(C)(=O)=O)cc4)cc23)c1F` [P-2165, Propane-1-sulfonic acid {2,4-difluoro-3-[5-(4-methanesulfonylamino-phenyl)-1H-pyrrolo[2,3-b]pyridine-3-carbonyl]-phenyl}-amide] were, in that order, under 10 nM, over 10 µM and under 1000 nM.
The corresponding values for `CCCS(=O)(=O)Nc1ccc(F)c(C(=O)c2c[nH]c3ncc(-c4ccc(S(=O)(=O)N(C)C)cc4)cc23)c1F` [P-2185, 4-{3-[2,6-Difluoro-3-(propane-1-sulfonylamino)-benzoyl]-1H-pyrrolo[2,3-b]pyridin-5-yl}-N,N-dimethyl-benzenesulfonamide] are under 10 nM, over 10 µM and under 100 nM.
Turning to `CCCS(=O)(=O)Nc1ccc(F)c(C(=O)c2c[nH]c3ncc(-c4ccc(N)nc4)cc23)c1F` [P-2214, Propane-1-sulfonic acid {3-[5-(6-amino-pyridin-3-yl)-1H-pyrrolo[2,3-b]pyridine-3-carbonyl]-2,4-difluoro-phenyl}-amide], the results for the IC50 (against B-Raf V600E; at CYP1A2; in data set [1]) were under 10 nM, over 10 µM and under 1000 nM, respectively.
The like results for `N#Cc1cnc2[nH]cc(C(=O)c3c(F)ccc(NS(=O)(=O)c4ccccc4)c3F)c2c1` [P-2046, N-[3-(5-Cyano-1H-pyrrolo[2,3-b]pyridine-3-carbonyl)-2,4-difluoro-phenyl]-benzenesulfonamide] were, in that order, under 10 nM, over 10 µM and under 1000 nM.
The like results for `CCCS(=O)(=O)Nc1ccc(F)c(C(=O)c2c[nH]c3ncc(-c4ccc(S(=O)(=O)CC)cc4)cc23)c1F` [P-2218, Propane-1-sulfonic acid {3-[5-(4-ethanesulfonyl-phenyl)-1H-pyrrolo[2,3-b]pyridine-3-carbonyl]-2,4-difluoro-phenyl}-amide] were, in that order, under 100 nM, over 10 µM and under 100 nM.
The like results for `O=C(c1c(F)ccc(NS(=O)(=O)c2cccc(F)c2)c1F)c1c[nH]c2nccc(Cl)c12` [P-2019, N-[3-(4-Chloro-1H-pyrrolo[2,3-b]pyridine-3-carbonyl)-2,4-difluoro-phenyl]-3-fluoro-benzenesulfonamide] were, in that order, under 10 nM, over 10 µM and under 5000 nM.
`COc1cnc2[nH]cc(C(=O)c3c(F)ccc(NS(=O)(=O)c4ccccc4F)c3F)c2c1` [P-2009, N-[2,4-Difluoro-3-(5-methoxy-1H-pyrrolo[2,3-b]pyridine-3-carbonyl)-phenyl]-2-fluoro-benzenesulfonamide]: the figures for the half-inhibitory concentration (IC50) (against B-Raf V600E; on CYP1A2; in data set [1]) were under 10 nM, over 10 µM and under 1000 nM, respectively.
For `N#Cc1cnc2[nH]cc(C(=O)c3c(F)ccc(NS(=O)(=O)c4ccccc4F)c3F)c2c1` [P-2011, N-[3-(5-Cyano-1H-pyrrolo[2,3-b]pyridine-3-carbonyl)-2,4-difluoro-phenyl]-2-fluoro-benzenesulfonamide], the 50% inhibitory concentration (IC50) against B-Raf V600E is under 10 nM; at CYP1A2 it was over 10 µM; in data set [1], under 1000 nM.
The like results for `COc1ncc(-c2cnc3[nH]cc(C(=O)c4c(F)ccc(NS(=O)(=O)c5cc(F)ccc5F)c4F)c3c2)cn1` [P-2042, N-{2,4-Difluoro-3-[5-(2-methoxy-pyrimidin-5-yl)-1H-pyrrolo[2,3-b]pyridine-3-carbonyl]-phenyl}-2,5-difluoro-benzenesulfonamide] were, in that order, under 10 nM, over 10 µM and under 1000 nM.
The like results for `N#Cc1ccnc2[nH]cc(C(=O)c3c(F)ccc(NS(=O)(=O)c4ccccc4F)c3F)c12` [P-2020, N-[3-(4-Cyano-1H-pyrrolo[2,3-b]pyridine-3-carbonyl)-2,4-difluoro-phenyl]-2-fluoro-benzenesulfonamide] were, in that order, under 10 nM, over 10 µM and under 5000 nM.
On to `CCCS(=O)(=O)Nc1cccc(C(=O)c2c[nH]c3ncc(-c4cnc(OC)nc4)cc23)c1F` [P-2407, Propane-1-sulfonic acid {2-fluoro-3-[5-(2-methoxy-pyrimidin-5-yl)-1H-pyrrolo[2,3-b]pyridine-3-carbonyl]-phenyl}-amide], for which the IC50 was under 10 nM against B-Raf V600E, over 10 µM at CYP1A2 and under 1000 nM in data set [1].
As to `CCCS(=O)(=O)Nc1ccc(F)c(C(=O)c2c[nH]c3ncc(-c4cnc(SC)nc4)cc23)c1F` [P-2189, Propane-1-sulfonic acid {2,4-difluoro-3-[5-(2-methylsulfanyl-pyrimidin-5-yl)-1H-pyrrolo[2,3-b]pyridine-3-carbonyl]-phenyl}-amide], the IC50 is under 10 nM at B-Raf V600E, over 10 µM at CYP1A2 and under 1000 nM in data set [1].
The corresponding values for `N#Cc1ccnc2[nH]cc(C(=O)c3c(F)ccc(NS(=O)(=O)c4cccc(F)c4)c3F)c12` [P-2039, N-[3-(4-Cyano-1H-pyrrolo[2,3-b]pyridine-3-carbonyl)-2,4-difluoro-phenyl]-3-fluoro-benzenesulfonamide] are under 10 nM, over 10 µM and under 5000 nM.
The corresponding values for `N#Cc1cnc2[nH]cc(C(=O)c3c(F)ccc(NS(=O)(=O)c4cccnc4)c3F)c2c1` [P-2072, Pyridine-3-sulfonic acid [3-(5-cyano-1H-pyrrolo[2,3-b]pyridine-3-carbonyl)-2,4-difluoro-phenyl]-amide] are under 10 nM, over 10 µM and under 5000 nM.
In the case of `CCCS(=O)(=O)Nc1ccc(F)c(C(=O)c2c[nH]c3ncc(-c4ccc(NC(C)=O)nc4)cc23)c1F` [P-2193, N-(5-{3-[2,6-Difluoro-3-(propane-1-sulfonylamino)-benzoyl]-1H-pyrrolo[2,3-b]pyridin-5-yl}-pyridin-2-yl)-acetamide], the IC50 on B-Raf V600E was under 10 nM; on CYP1A2, over 10 µM; in data set [1], under 1000 nM.
The corresponding values for `COc1ncc(-c2cnc3[nH]cc(C(=O)c4c(F)ccc(NS(=O)(=O)c5ccccc5F)c4F)c3c2)cn1` [P-2041, N-{2,4-Difluoro-3-[5-(2-methoxy-pyrimidin-5-yl)-1H-pyrrolo[2,3-b]pyridine-3-carbonyl]-phenyl}-2-fluoro-benzenesulfonamide] are under 10 nM, over 10 µM and under 1000 nM.
The corresponding values for `CCCS(=O)(=O)Nc1ccc(F)c(C(=O)c2c[nH]c3ncc(-c4ccc(OCCN5CCCC5)nc4)cc23)c1F` [P-2233, Propane-1-sulfonic acid (2,4-difluoro-3-{5-[6-(2-pyrrolidin-1-yl-ethoxy)-pyridin-3-yl]-1H-pyrrolo[2,3-b]pyridine-3-carbonyl}-phenyl)-amide] are under 10 nM, over 10 µM and under 100 nM.
